# Species on record: Rattus norvegicus
# Experiment: DrugMatrix - Regimen: Daily Repeat
# Format: toxicity, organism-based, Sprague-Dawley
# Set-up: regimen Daily Repeat, gender Male, age 6-8 weeks
# Conditions: in vivo, po, route oral GAVAGE, vehicle .5 % CMC; for ABSOLUTE BASOPHIL / ABSOLUTE EOSINOPHIL / ABSOLUTE LYMPHOCYTE / ABSOLUTE MONOCYTE / ABSOLUTE SEGMENTED NEUTROPHIL / BASOPHIL / EOSINOPHIL / ERYTHROCYTE COUNT / HEMATOCRIT / HEMOGLOBIN / LEUKOCYTE COUNT / LYMPHOCYTE / MEAN CORPUSCULAR HEMOGLOBIN / MEAN CORPUSCULAR HEMOGLOBIN CONCENTRATION / MEAN CORPUSCULAR VOLUME / MONOCYTE / NEUTROPHIL / NUCLEATED RED BLOOD CELLS / PLATELET COUNT: tissue Blood; for ALANINE AMINOTRANSFERASE / ALBUMIN / ALKALINE PHOSPHATASE / ASPARTATE AMINOTRANSFERASE / BLOOD UREA NITROGEN / CARBON DIOXIDE / CHLORIDE / CHOLESTEROL / CREATINE PHOSPHOKINASE / CREATININE / GLUCOSE / LACTATE DEHYDROGENASE / LIPASE / PHOSPHORUS / POTASSIUM / SODIUM / TOTAL BILIRUBIN / TOTAL PROTEIN / URIC ACID: tissue Plasma
# [1] = 0 mg/kg, 72 h, dose level Control, time 3 day
# [2] = 0 mg/kg, 120 h, dose level Control, time 5 day
# [3] = 20 mg/kg, 72 h, dose level Low, time 3 day
structure (smiles),measurement,setting,value
CC(C)(C)NC(=O)[C@@H]1C[C@@H]2CCCC[C@@H]2CN1C[C@@H](O)[C@H](Cc1ccccc1)NC(=O)[C@H](CC(N)=O)NC(=O)c1ccc2ccccc2n1,ABSOLUTE BASOPHIL,[1],0 CELLS/uL
same,ABSOLUTE EOSINOPHIL,[1],222.83 CELLS/uL
same,ABSOLUTE LYMPHOCYTE,[1],14453 CELLS/uL
same,ABSOLUTE MONOCYTE,[1],0 CELLS/uL
same,ABSOLUTE SEGMENTED NEUTROPHIL,[1],1490.83 CELLS/uL
same,BASOPHIL,[1],0%
same,EOSINOPHIL,[1],1.33%
same,ERYTHROCYTE COUNT,[1],5.76 x10E6/uL
same,HEMATOCRIT,[1],36.52%
same,HEMOGLOBIN,[1],13.45 G/DL
same,LEUKOCYTE COUNT,[1],16.17 x10E3/uL
same,LYMPHOCYTE,[1],89.33%
same,MEAN CORPUSCULAR HEMOGLOBIN,[1],23.37 pg
same,MEAN CORPUSCULAR HEMOGLOBIN CONCENTRATION,[1],36.85 G/DL
same,MEAN CORPUSCULAR VOLUME,[1],63.47 fL
same,MONOCYTE,[1],0%
same,NEUTROPHIL,[1],9.33%
same,NUCLEATED RED BLOOD CELLS,[1],0 /100WBC
same,PLATELET COUNT,[1],1239.5 x10E3/uL
same,ALANINE AMINOTRANSFERASE,[1],43.83 u/L
same,ALBUMIN,[1],4.27 G/DL
same,ALKALINE PHOSPHATASE,[1],398.83 u/L
same,ASPARTATE AMINOTRANSFERASE,[1],81.17 u/L
same,BLOOD UREA NITROGEN,[1],17.67 mg/dL
same,CARBON DIOXIDE,[1],27.5 mmol/L
same,CHLORIDE,[1],99.17 MEQ/L
same,CHOLESTEROL,[1],74 mg/dL
same,CREATINE PHOSPHOKINASE,[1],331.5 u/L
same,CREATININE,[1],0.2 mg/dL
same,GLUCOSE,[1],171.33 mg/dL
same,LACTATE DEHYDROGENASE,[1],241.67 u/L
same,LIPASE,[1],9.5 u/L
same,PHOSPHORUS,[1],12.25 mg/dL
same,POTASSIUM,[1],6.33 MEQ/L
same,SODIUM,[1],141.28 MEQ/L
same,TOTAL BILIRUBIN,[1],0.15 mg/dL
same,TOTAL PROTEIN,[1],5.98 G/DL
same,URIC ACID,[1],1.63 mg/dL
same,ABSOLUTE BASOPHIL,[2],0 CELLS/uL
same,ABSOLUTE EOSINOPHIL,[2],148.67 CELLS/uL
same,ABSOLUTE LYMPHOCYTE,[2],16020.5 CELLS/uL
same,ABSOLUTE MONOCYTE,[2],29.17 CELLS/uL
same,ABSOLUTE SEGMENTED NEUTROPHIL,[2],1468.33 CELLS/uL
same,BASOPHIL,[2],0%
same,EOSINOPHIL,[2],1%
same,ERYTHROCYTE COUNT,[2],5.78 x10E6/uL
same,HEMATOCRIT,[2],35.77%
same,HEMOGLOBIN,[2],13.4 G/DL
same,LEUKOCYTE COUNT,[2],17.67 x10E3/uL
same,LYMPHOCYTE,[2],90.5%
same,MEAN CORPUSCULAR HEMOGLOBIN,[2],23.22 pg
same,MEAN CORPUSCULAR HEMOGLOBIN CONCENTRATION,[2],37.47 G/DL
same,MEAN CORPUSCULAR VOLUME,[2],61.92 fL
same,MONOCYTE,[2],0.17%
same,NEUTROPHIL,[2],8.33%
same,NUCLEATED RED BLOOD CELLS,[2],0.17 /100WBC
same,PLATELET COUNT,[2],1255.5 x10E3/uL
same,ALANINE AMINOTRANSFERASE,[2],46.5 u/L
same,ALBUMIN,[2],4.38 G/DL
same,ALKALINE PHOSPHATASE,[2],336 u/L
same,ASPARTATE AMINOTRANSFERASE,[2],76.5 u/L
same,BLOOD UREA NITROGEN,[2],20 mg/dL
same,CARBON DIOXIDE,[2],27.5 mmol/L
same,CHLORIDE,[2],101 MEQ/L
same,CHOLESTEROL,[2],71.33 mg/dL
same,CREATINE PHOSPHOKINASE,[2],231.83 u/L
same,CREATININE,[2],0.37 mg/dL
same,GLUCOSE,[2],168.83 mg/dL
same,LACTATE DEHYDROGENASE,[2],174 u/L
same,LIPASE,[2],8.67 u/L
same,PHOSPHORUS,[2],11.48 mg/dL
same,POTASSIUM,[2],6.82 MEQ/L
same,SODIUM,[2],143.8 MEQ/L
same,TOTAL BILIRUBIN,[2],0.2 mg/dL
same,TOTAL PROTEIN,[2],5.98 G/DL
same,URIC ACID,[2],1.83 mg/dL
same,ABSOLUTE BASOPHIL,[3],0 CELLS/uL
same,ABSOLUTE EOSINOPHIL,[3],240.67 CELLS/uL
same,ABSOLUTE LYMPHOCYTE,[3],11319.33 CELLS/uL
same,ABSOLUTE MONOCYTE,[3],32 CELLS/uL
same,ABSOLUTE SEGMENTED NEUTROPHIL,[3],1141.33 CELLS/uL
same,BASOPHIL,[3],0%
same,EOSINOPHIL,[3],1.67%
same,ERYTHROCYTE COUNT,[3],5.23 x10E6/uL
same,HEMATOCRIT,[3],32.43%
same,HEMOGLOBIN,[3],12.37 G/DL
same,LEUKOCYTE COUNT,[3],12.73 x10E3/uL
same,LYMPHOCYTE,[3],89%
same,MEAN CORPUSCULAR HEMOGLOBIN,[3],23.63 pg
same,MEAN CORPUSCULAR HEMOGLOBIN CONCENTRATION,[3],38.13 G/DL
same,MEAN CORPUSCULAR VOLUME,[3],62 fL
same,MONOCYTE,[3],0.33%
same,NEUTROPHIL,[3],9%
same,NUCLEATED RED BLOOD CELLS,[3],0 /100WBC
same,PLATELET COUNT,[3],1264.33 x10E3/uL
same,ALANINE AMINOTRANSFERASE,[3],43.67 u/L
same,ALBUMIN,[3],4.1 G/DL
same,ALKALINE PHOSPHATASE,[3],371.33 u/L
same,ASPARTATE AMINOTRANSFERASE,[3],73.67 u/L
same,BLOOD UREA NITROGEN,[3],14.33 mg/dL
same,CARBON DIOXIDE,[3],25.67 mmol/L
same,CHLORIDE,[3],102 MEQ/L
same,CHOLESTEROL,[3],79.67 mg/dL
same,CREATINE PHOSPHOKINASE,[3],319.67 u/L
same,CREATININE,[3],0.15 mg/dL
same,GLUCOSE,[3],144.67 mg/dL
same,LACTATE DEHYDROGENASE,[3],139.33 u/L
same,LIPASE,[3],8 u/L
same,PHOSPHORUS,[3],12.8 mg/dL
same,POTASSIUM,[3],6.81 MEQ/L
same,SODIUM,[3],142.53 MEQ/L
same,TOTAL BILIRUBIN,[3],0.2 mg/dL
same,TOTAL PROTEIN,[3],5.67 G/DL
same,URIC ACID,[3],1.47 mg/dL

# Source: ChEMBL document CHEMBL3885881, “DrugMatrix”
